Reference: patent US6900331B2, “Derivatives of epothilone B and D and synthesis thereof” (University of Notre Dame, priority 2002, dated 2005)

Columns and labels:
tumor cell = assay: Tumor cell growth assays; assay type: cell-based; settings: fold as active as epothilone B
tubulin = assay: Preliminary tubulin polymerization activity; assay type: biochemical; settings: preliminary biological investigations
glioma cell line SF-268 = assay: Cytotoxicity assay (SRB), SF-268; assay type: cell-based, Human; settings: 3 days exposure, SRB staining
Description: (§1) Cell lines and culture conditions: Human breast carcinoma cell line MCF-7, multi-drug resistant breast carcinoma cell line NCI/ADR, non-small cell lung carcinoma cell line NCI-H460 and glioma cell line SF-268 were obtained from the National Cancer Institute. All cell lines were maintained in RPMI-1640 medium (Gibco/BRL, Rockville, Md.) supplemented with 2 mM L-glutamine, 25 mM HEPES and 10% FBS (Hyclone, Logan, Utah). Cells were maintained in a humidified incubator at 37° C. in 5% CO2.
(§2) Cytoloxicity assays: Tumor cells were seeded in 100 μl at 5000 (MCF-7), 7500 (NCI/ADR), 5000 (NCI-H460) and 7500 (SF-268) cells per well in 96-well plates. Cells were allowed to adhere for 24 hours. Each compound ranging from 0.001 to 1000 nM in 100 μl was added to cells in triplicate wells. After 3 days, cells were fixed at 4° C. for 1 hour with 10% trichloroacetic acid and then stained with 0.2% sulforhodamine B (SRB)/1% acetic acid for 20 minutes at room temperature. The unbounded dye was rinsed away with 1% acetic acid, and the bounded SRB was then extracted with 200 μl of 10 mM Tris base. The absorbance was measured at 515 nm using a 96-well microtiter plate reader (Spectra Max 250, Molecular Devices). The IC50 values were calculated using a KaleidaGraph program. The experiments were performed twice.

[1] = system: Human breast carcinoma cell line MCF-7; assay: Cytotoxicity assay (SRB), MCF-7; assay type: cell-based; settings: 3 days exposure, SRB staining
Description: as §1, §2

[2] = system: multi-drug resistant breast carcinoma cell line NCI/ADR; assay: Cytotoxicity assay (SRB), NCI/ADR; assay type: cell-based, Human; settings: 3 days exposure, SRB staining
Description: as §1, §2

[3] = system: non-small cell lung carcinoma cell line NCI-H460; assay: Cytotoxicity assay (SRB), NCI-H460; assay type: cell-based, Human; settings: 3 days exposure, SRB staining
Description: as §1, §2

In the case of `C/C(=C\c1csc(C)n1)[C@H]1OC(=O)C[C@H](O)C(C)(C)C(=O)[C@H](C)[C@@H](O)[C@@H](C)CCC[C@@]2(C)O[C@H]2[C@@H]1C` [Compound 3, (R)-C14-methyl epothilone B], the “activity relative to epothilone B itself” value (tumor cell) is reported as over 2 ×, the tubulin polymerization activity (tubulin) is reported as “significant” and the IC50 (glioma cell line SF-268) is reported as 3 nM. The IC50 [1] was 3 nM, the IC50 [2] was 23 nM and the IC50 [3] was 3 nM.
In the case of `C/C(=C\c1csc(C)n1)[C@H]1OC(=O)C[C@H](O)C(C)(C)C(=O)[C@H](C)[C@@H](O)[C@@H](C)CCC[C@@]2(C)O[C@H]2[C@H]1C` [Compound 4, (S)-C14-methyl epothilone B], the IC50 (glioma cell line SF-268) is reported as over 1000 nM, the IC50 [1] is reported as over 1000 nM and the IC50 [2] is reported as over 1000 nM. The IC50 [3] was over 1000 nM.
For `C/C1=C/[C@H](C)[C@@H](/C(C)=C/c2csc(C)n2)OC(=O)C[C@H](O)C(C)(C)C(=O)[C@H](C)[C@@H](O)[C@@H](C)CCC1` [Compound 12, (S)-C14-methyl epothilone D], the tubulin polymerization activity (tubulin) was “significant”, the IC50 (glioma cell line SF-268; Homo sapiens, SF-268, 72 h) was 42 nM and the IC50 ([1]; Homo sapiens, MCF7, 72 h) was 35 nM. The IC50 ([2]; Homo sapiens, NCI/ADR-RES, 72 h) was 238 nM and the IC50 ([3]; Homo sapiens, NCI-H460, 72 h) was 42 nM.
For `C/C1=C/[C@@H](C)[C@@H](/C(C)=C/c2csc(C)n2)OC(=O)C[C@H](O)C(C)(C)C(=O)[C@H](C)[C@@H](O)[C@@H](C)CCC1` [Compound 13, (R)-C14-methyl epothilone D], the tubulin polymerization activity (tubulin) was “relatively weak activity”, the IC50 (glioma cell line SF-268) was over 1000 nM and the IC50 [1] was over 1000 nM. It also gave an IC50 [2] of over 1000 nM and an IC50 [3] of over 1000 nM.
`C/C1=C/C[C@@H](/C(C)=C/c2csc(C)n2)OC(=O)C[C@H](O)C(C)(C)C(=O)[C@H](C)[C@@H](O)[C@@H](C)CCC1` [Epothilone D, reference compound] gave an IC50 (glioma cell line SF-268) of 7 nM, an IC50 [1] of 5 nM and an IC50 [2] of 26 nM. For the same compound, the IC50 [3] was 20 nM.
